# Assay results published in patent US20220218833A1, “PLATELET-FACILITATED DELIVERY OF THERAPEUTIC COMPOUNDS” (CSTS Health Care Inc., priority 2019, published 2022).
# Entries after “also recorded” stand apart in the source; their conditions may differ. Where no end group is shown, it is not given here.
# Experiments:
# isolated platelets = assay: Platelet loading of Alexa647-labeled peptides, decrease in supernatant fluorescence; format: cell-based; conditions: for absorbance of supernatant, complete versus loaded measurements (loading into platelets): Alexa647-labeled peptides co-incubated with isolated platelets at 37° C. for one hour, FIG. 1A; for loading of attached cargo into platelets, loaded condition normalized to complete condition: Alexa647 as cargo, FIG. 1B
# Method: Alexa647-labeled GAG-binding peptides, identified in FIG. 1A and FIG. 1B as PAL1 and PAL2 and an Alexa647-labeled control peptide (a charge-free ligand (CFL) which served as a negative control), were tested for their binding affinity for glycosaminoglycans, such as chondroitin sulfate, and their abilities to enter platelets.
# Alexa647-labeled peptides or Alexa647 alone were co-incubated with isolated platelets at 37° C. for one hour to allow for platelet loading. The respective platelet-loading ability was indicated by a decrease in fluorescence in supernatant following the incubation. For controls, identical experiments were performed without the incubation period (noted as “complete” in the figure). Platelets following co-incubation were then centrifuged at 800 g for 10-minutes to separate platelets from supernatant (noted as “loaded” in the figure).
# FIG. 1B represents the data in FIG. 1A normalized for each peptide experiment, i.e., normalization of a loaded condition to its complete condition.
# [1] = tested on: alpha granules of platelets; assay: Confocal microscopy of Alexa647-labeled peptides with PF4 alpha granule marker; format: cell-based; conditions: for loading of attached cargo into alpha granules of platelets (Alexa647 intensities for each ROI): ROIs selected on PF4 intensity, FIG. 2B
# Method: To confirm that the Alexa647-labeled GAG-binding peptides were loaded into alpha granules of platelets, confocal microscopy was used. The platelets that were centrifuged in the experiments of FIG. 1A and FIG. 1B, were fixed in 2% paraformaldehyde and settled onto glass coverslips. After permeabilization, immunofluorescence staining was performed against PF4, which is a marker for alpha granules of platelets. Platelets were stained with Alexa568-secondary antibody. Images were collected through a Nikon-A1 laser-scanning microscope equipped with a 60× oil objective lens.
# FIG. 2A are representative images with PF4 staining shown in red (left column) and the Alexa647 signal (from the free Alexa647, Alexa647-labeled GAG-binding peptide, or Alexa647-labeled CFL; middle column) shown in purple. Images were only adjusted for brightness and contrast for display. n>5 images were acquired for each experiment and regions of interest (ROIs) were selected based on PF4 intensity.
# The Alexa647 intensities for each ROI were measured using ImageJ and plotted in box and whisker graph using Prism 8.
# platelets = assay: Cargo loading into platelets contacted with a non-specific GAG inhibitor; format: cell-based; conditions: platelets contacted with the inhibitor
# Source text: The present invention is based, in part, on the discovery that cargo can be loaded in alpha granules and that this loading is not receptor-mediated. Instead, cargo loading into platelets, and specifically into their alpha granules, relies on the binding to glycosaminoglycans (GAG) in the alpha granules of the platelets.
# [2] = Affinity chromatography of peptides; format: binding; conditions: FIG. 4
# Method: Additionally, the binding affinities for the two illustrative GAG-binding peptides and the CFL to heparan sulfate (HS) was determined using affinity chromatography.
binding to heparan sulfate (HS) [2],Compound,"absorbance of supernatant, complete versus loaded measurements (loading into platelets) (isolated platelets)","loading of attached cargo into platelets, loaded condition normalized to complete condition (isolated platelets)",loading of attached cargo into alpha granules of platelets (Alexa647 intensities for each ROI) [1],amount of cargos loaded into platelets (platelets),"relative affinity for HS, PAL2 versus PAL1 [2]","colocalization of alpha granule marker PF4 and Alexa647 signal ([1]; merged confocal images, FIG. 2A)"
–,ERRIWFPYRRF (SEQ ID NO: 1) (also: Alexa647 label) [PAL1],decrease in absorbance,facilitates loading of an attached cargo into platelets,facilitates loading of an attached cargo into alpha granules of platelets,–,–,–
–,Cc1cc(N)c2cc(NC(=O)Nc3ccc4nc(C)cc(N)c4c3)ccc2n1 [Surfen],–,–,–,reduced amounts of cargos are loaded into platelets,–,–
–,RFRWPYRIREF (SEQ ID NO: 2) (also: Alexa647 label) [PAL2],decrease in absorbance,facilitates loading of an attached cargo into platelets,facilitates loading of an attached cargo into alpha granules of platelets,–,greater affinity for HS than PAL′; also recorded: binds HS tighter than PALL,–
did not bind to HS,"CFL: control peptide, a charge-free ligand, SEQ ID NO: 14, negative control (EGGIWFPYGGF) [reference compound]",did not change,unable to direct loading of the cargo into platelets,do not load into platelets,–,–,Co-localization was not observed
